Laboratory results reported in ChEMBL document CHEMBL5614431, “Discovery of 1,3,4-oxadiazoles with slow-action activity against Plasmodium falciparum malaria parasites” (Eur J Med Chem, 2024).
The source made the active and inactive calls. The calls are words filed in the database; no cut-off is given here.

What was measured:
[1] = Apparent permeability of the compound in human Caco-2 cells across apical to basolateral side; type: ADME, cell-based
[2] = Metabolic stability in human liver microsomes assessed as half life; type: ADME, Microsome
Plasmodium falciparum [3] = experiment: Antimalarial activity against synchronous ring stage Plasmodium falciparum 3D7 infected in human Erythrocyte assessed as inhibition of parasite growth incubated for 96 hrs supplemented with IPP by [3H]-hypoxanthine incorporation assay; type: functional, organism-based; conditions: 3D7, Erythrocyte
[4] = Toxicity in female BALB/c mouse assessed as effect on kidney at 116 mg/kg, po via gavage administered once daily for 3 days; type: organism-based; conditions: in vivo, 72 h, time 3 day
Plasmodium falciparum [5] = experiment: Antimalarial activity against synchronous ring stage Plasmodium falciparum 3D7 infected in human Erythrocyte assessed as inhibition of parasite growth incubated for 96 hrs by [3H]-hypoxanthine incorporation assay; type: functional, organism-based; conditions: 3D7, Erythrocyte
[6] = Selectivity ratio of IC50 for antimalarial activity against synchronous ring stage Plasmodium falciparum 3D7 infected in human Erythrocyte assessed as inhibition of parasite growth incubated for 48 hrs by [3H]-hypoxanthine incorporation assay to IC50 for antimalarial activity against synchronous ring stage Plasmodium falciparum 3D7 infected in human Erythrocyte assessed as inhibition of parasite growth incubated for 48 hrs by [3H]-hypoxanthine incorporation assay; type: functional
Plasmodium falciparum [7] = experiment: Resistance index, ratio of IC50 for antimalarial activity against multidrug-resistant synchronous ring stage Plasmodium falciparum Dd2 infected in human Erythrocyte assessed as inhibition of parasite growth incubated for 96 hrs by [3H]-hypoxanthine incorporation assay to IC50 for antimalarial activity against synchronous ring stage Plasmodium falciparum 3D7 infected in human Erythrocyte assessed …; type: toxicity, organism-based
Plasmodium berghei [8] = experiment: Antimalarial activity against Plasmodium berghei ANKA infected in female BALB/c mouse model assessed as reduction in parasitemia at 100 mg/kg, po qd pre-infected for 2 hrs followed by compound addition and measured after 3 days by microscopic analysis; type: functional, organism-based; conditions: time 3.0 day
[9] = Selectivity index, ratio of IC50 for cytotoxicity against human NFF cells to IC50 for antimalarial activity against synchronous ring stage Plasmodium falciparum 3D7 infected in human Erythrocyte assessed as inhibition of parasite growth incubated for 96 hrs; type: toxicity, cell-based; conditions: read-out: Ratio IC50
[10] = Toxicity in female BALB/c mouse assessed as appearance of ruffled coats in animal at 116 mg/kg, po via gavage administered twice daily for 3 days; type: organism-based; conditions: in vivo, 72 h, time 3 day
[11] = Toxicity in female BALB/c mouse assessed as effect on liver at 116 mg/kg, po via gavage administered once daily for 3 days; type: organism-based; conditions: in vivo, 72 h, time 3 day
[12] = Toxicity in female BALB/c mouse assessed as appearance of ruffled coats in animal at 116 mg/kg, po via gavage administered once daily for 3 days; type: organism-based; conditions: in vivo, 72 h, time 3 day
Plasmodium falciparum [13] = experiment: Antimalarial activity against synchronous ring stage Plasmodium falciparum 3D7 infected in human Erythrocyte assessed as inhibition of parasite growth incubated for 48 hrs by [3H]-hypoxanthine incorporation assay; type: functional, organism-based; conditions: 3D7, Erythrocyte
[14] = Cmax in non fasted female BALB/c mouse plasma at 100 mg/kg, po via gavage and measured upto 24 hrs by LC-MS analysis; type: ADME, organism-based
[15] = Chemical stability of the compound in 1:1 mixture of 6M aqueous hydrochloric acid/THF assessed as degradation measured over 20 hrs; type: physicochemical; conditions: buffer
[16] = Toxicity in female BALB/c mouse assessed as effect on liver at 116 mg/kg, po via gavage administered twice daily for 3 days; type: organism-based; conditions: in vivo, 72 h, time 3 day
Plasmodium berghei [17] = experiment: Antimalarial activity against Plasmodium berghei ANKA infected in female BALB/c mouse model assessed as reduction in parasitemia at 100 mg/kg, po bid pre-infected for 2 hrs followed by compound addition and measured after 3 days by microscopic analysis; type: functional, organism-based; conditions: time 3.0 day
[18] = AUC (0 to t) in non fasted female BALB/c mouse plasma at 100 mg/kg, po via gavage and measured after 7.5 hrs by LC-MS analysis; type: ADME, organism-based
[19] = Cytotoxicity against human NFF cells assessed as reduction in cell viability incubated for 72 hrs by SRB assay; type: toxicity, cell-based
[20] = Toxicity in female BALB/c mouse assessed as effect on kidney at 116 mg/kg, po via gavage administered twice daily for 3 days; type: organism-based; conditions: in vivo, 72 h, time 3 day
[21] = Tmax in non fasted female BALB/c mouse at 100 mg/kg, po via gavage and measured upto 24 hrs by LC-MS analysis; type: ADME, organism-based; conditions: in vivo
[22] = Selectivity ratio of IC50 for antimalarial activity against multidrug-resistant synchronous ring stage Plasmodium falciparum Dd2 infected in human Erythrocyte assessed as inhibition of parasite growth incubated for 48 hrs by [3H]-hypoxanthine incorporation assay to IC50 for antimalarial activity against multidrug-resistant synchronous ring stage Plasmodium falciparum Dd2 infected in human …; type: functional
[23] = Selectivity ratio of IC50 for antimalarial activity against synchronous ring stage Plasmodium falciparum 3D7 infected in human Erythrocyte assessed as inhibition of parasite growth incubated for 96 hrs supplemented with IPP by [3H]-hypoxanthine incorporation assay to IC50 for antimalarial activity against synchronous ring stage Plasmodium falciparum 3D7 infected in human Erythrocyte assessed as …; type: functional
Plasmodium falciparum [24] = experiment: Antimalarial activity against multidrug-resistant synchronous ring stage Plasmodium falciparum Dd2 infected in human Erythrocyte assessed as inhibition of parasite growth incubated for 48 hrs by [3H]-hypoxanthine incorporation assay; type: functional, organism-based
[25] = Plasma concentration in female BALB/c mouse at 100 mg/kg, po measured after 7.5 hrs; type: ADME, organism-based; conditions: in vivo, BLD = below limit of detection
[26] = Toxicity in female BALB/c mouse assessed as adverse clinical effect at 116 mg/kg, po via gavage administered once for 3 days; type: organism-based; conditions: in vivo, 72 h, time 3 day
[27] = Chemical stability of the compound in aqueous buffer/THF assessed as degradation measured over 24 hrs; type: physicochemical
[28] = Metabolic stability in mouse liver microsomes assessed as half life; type: ADME, Microsome
[29] = Toxicity in female BALB/c mouse assessed as adverse clinical effect at 116 mg/kg, po via gavage administered twice for 3 days; type: organism-based; conditions: in vivo, 72 h, time 3 day
Plasmodium falciparum [30] = experiment: Antimalarial activity against multidrug-resistant synchronous ring stage Plasmodium falciparum Dd2 infected in human Erythrocyte assessed as inhibition of parasite growth incubated for 96 hrs by [3H]-hypoxanthine incorporation assay; type: functional, organism-based

O=S(=O)(c1nnc(N2CCOCC2)o1)C1CCCCC1
Papp A→B [1]: 86 ×10⁻⁶ cm/s | half-life [2]: > 4.25 h | IC50 (Plasmodium falciparum [3]): 1790 nM | Activity [4]: Non-Toxic | IC50 (Plasmodium falciparum [5]): 550 nM | Ratio IC50 [6]: >91 | Ratio IC50 (Plasmodium falciparum [7]): 1 | Activity (Plasmodium berghei [8]): Active | selectivity ratio at 96 h [9]: > 182 | Activity [10]: Toxic | Activity [11]: Non-Toxic | Activity [12]: Toxic | IC50 (Plasmodium falciparum [13]): > 50000 nM | Cmax [14]: 7.61 µM | Stability [15]: Unstable | Activity [16]: Non-Toxic | Activity (Plasmodium berghei [17]): Active | AUC(0-t) at 7.5 h [18]: 11.5 µM·h | IC50 at 72 h [19]: > 100000 nM | Activity [20]: Non-Toxic | Tmax [21]: 0.25 h | Ratio IC50 [22]: >50 | Ratio IC50 [23]: 3 | IC50 (Plasmodium falciparum [24]): > 25000 nM | Cp [25]: Bld | Activity [26]: Non-Toxic | Stability [27]: Stable | half-life [28]: 1.65 h | Activity [29]: Non-Toxic | IC50 (Plasmodium falciparum [30]): 500 nM
